Reference: EP0037780A1, “Alcoxy-propanol amines useful as medicines, and process for their preparation” (PIERRE FABRE S.A., priority 1980, dated 1981)
In brackets after ≈: the same amount, converted by molar mass. Where two headings read alike, the source gives them in different places.

Assay: Solubility
Assay type: physicochemical
Details: read-out: Solubilité
From the text: Chromatographie sur plaque : • - support : gel de silice 60 F 254 Merck • - solvant : chloroforme - méthanol - ammoniaque 80/18/2 • - révélation : iode • - Rf : 0,65 Solubilité : soluble à 5 % dans l'eau.
Chromatographie sur plaque : • - support : gel de silice 60 F 254 Merck • - solvant : chloroforme - méthanol - ammoniaque 80/18/2 • - révélation : iode • - Rf : 0,6 Solubilité : soluble à 1 % dans l'eau.
Chromatographie sur plaque : • - support : gel de silice 60 F 254 Merck • - solvant : chloroforme - méthanol - ammoniaque 80/18/2 • - révélation : Réactif de Dragendorf et iode • - Rf : 0,65 Solubilité : soluble à 2 % dans une solution aqueuse d'acide chlorhydrique (0,1 N) et à 1 % dans le propylène glycol.

| solubility (propylene glycol, organic solvent or mixture, dans le propylène glycol) | Compound | solubility (0.1 n aqueous hydrochloric acid, dans une solution aqueuse d'acide chlorhydrique (0,1 N)) | solubility (water, dans l'eau) |
| --- | --- | --- | --- |
| 10 mg/mL (≈ 36.8 mM) | CC(C)=CCCC(C)CCOCC(O)CNC(C)C (stereo not shown) [Exemple 3, isopropylamino-3 (diméthyl-3,7 octène-6 yloxy)-1 propanol-2] | 20 mg/mL (≈ 73.7 mM) | – |
| – | CCCCOCC(O)CNC(C)C (stereo not shown) [Exemple 1, isopropylamino-3 butoxy-1 propanol-2] | – | 50 mg/mL (≈ 264 mM) |
| – | CCCCOCC(O)CNC(C)(C)C (stereo not shown) [Exemple 2, tertiobutylamino-3 butoxy-1 propanol-2] | – | 10 mg/mL (≈ 49.2 mM) |
